Patent US20230406865A1, “CRYSTAL FORM OF FREE BASE OF INHIBITOR CONTAINING BICYCLIC RING DERIVATIVE AND PREPARATION METHOD AND APPLICATION OF CRYSTAL FORM” (SHANGHAI HANSOH BIOMEDICAL CO., LTD., priority 2020, published 2023)

Experiments:
[1] = target: T1, KIF5B-RET (Homo sapiens, UniProt P07949); assay: HTRF kinase activity inhibition, KIF5B-RET; type: biochemical; settings: ATP at Km
T1 construct: purchased SignalChem R02-19FG-05; the other entry of the earlier key: KIF5B (P33176, Kinesin-1 heavy chain)
T1 sequence (P07949 with tags, fused parts or gaps): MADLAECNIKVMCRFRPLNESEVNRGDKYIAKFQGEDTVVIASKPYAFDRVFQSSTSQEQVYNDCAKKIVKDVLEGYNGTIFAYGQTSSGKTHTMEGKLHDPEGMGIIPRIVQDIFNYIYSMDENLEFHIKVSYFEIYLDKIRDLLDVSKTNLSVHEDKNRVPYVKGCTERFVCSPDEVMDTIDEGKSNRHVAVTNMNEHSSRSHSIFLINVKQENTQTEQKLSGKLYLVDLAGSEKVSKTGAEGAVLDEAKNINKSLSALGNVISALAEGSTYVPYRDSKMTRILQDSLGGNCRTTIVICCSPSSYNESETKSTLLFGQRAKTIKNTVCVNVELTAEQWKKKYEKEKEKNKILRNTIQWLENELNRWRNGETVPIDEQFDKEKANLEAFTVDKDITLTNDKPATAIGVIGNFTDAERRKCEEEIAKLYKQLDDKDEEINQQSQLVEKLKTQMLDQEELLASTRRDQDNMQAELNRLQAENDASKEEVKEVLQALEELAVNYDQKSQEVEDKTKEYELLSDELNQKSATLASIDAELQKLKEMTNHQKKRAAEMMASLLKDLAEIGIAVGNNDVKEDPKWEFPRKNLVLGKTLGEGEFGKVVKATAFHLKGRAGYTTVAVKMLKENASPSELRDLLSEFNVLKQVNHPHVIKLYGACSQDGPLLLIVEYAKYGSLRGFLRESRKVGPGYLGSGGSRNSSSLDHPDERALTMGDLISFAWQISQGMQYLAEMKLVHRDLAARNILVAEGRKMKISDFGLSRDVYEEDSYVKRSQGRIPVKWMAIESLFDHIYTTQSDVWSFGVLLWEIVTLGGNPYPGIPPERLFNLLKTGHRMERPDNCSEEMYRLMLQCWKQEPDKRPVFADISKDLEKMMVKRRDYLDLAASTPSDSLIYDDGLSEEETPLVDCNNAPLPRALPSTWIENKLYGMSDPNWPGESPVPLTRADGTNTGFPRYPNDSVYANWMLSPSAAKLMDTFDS
Description: 2.2 Experimental Reagents: • RET enzyme was purchased from Carna Company, and the article number was 08-159; • RET M918T enzyme was purchased from Carna Company, and the article number was 08-508; • KIF5B-RET was purchased from SignalChem Company, the article number was R02-19FG-05; • CCDC6-RET was purchased from SignalChem Company, the article number was R02-19BG-05; • RET V804M enzyme was purchased from Thermofisher Company, and the article number was PV6223; • RET V804L enzyme was purchased from Thermofisher Company, and the article number was PV4397; • HTRF KinEASE-TK kit was purchased from Cisbio Company, and the article number was 62TK0PEC; • ATP was purchased from Thermofisher Company, and the article number was PV3227; • 384-well plate was purchased from PerkinElmer Company, and the article number was 6007290.
In this experiment, a homogeneous time-resolved fluorescence (HTRF) method was used for the detection of compounds on RET kinase activity.

[2] = test system: TT cells (MTC, RET C634W); assay: Inhibition of proliferation of TT cells (CellTiter-Glo, 72 h); type: cell-based; settings: Homo sapiens
How it was run: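 TT cells seeded overnight, then exposed to compound dilutions for 72 h at 37 °C, 5% CO2, with a solvent control. Viability read by CellTiter-Glo luminescence; IC50 from nonlinear regression of inhibition rate versus concentration.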

[3] = target: T2, Ba/F3 KIF5B-RET cells (Homo sapiens, UniProt P07949); assay: Inhibition of proliferation of Ba/F3 KIF5B-RET cells (CellTiter-Glo); type: cell-based; settings: 72 to 144 hours
T2 construct: fused on or other part: P33176 (Kinesin-1 heavy chain)
T2 sequence (P07949 whole entry, change not shown, the tested form may be a part): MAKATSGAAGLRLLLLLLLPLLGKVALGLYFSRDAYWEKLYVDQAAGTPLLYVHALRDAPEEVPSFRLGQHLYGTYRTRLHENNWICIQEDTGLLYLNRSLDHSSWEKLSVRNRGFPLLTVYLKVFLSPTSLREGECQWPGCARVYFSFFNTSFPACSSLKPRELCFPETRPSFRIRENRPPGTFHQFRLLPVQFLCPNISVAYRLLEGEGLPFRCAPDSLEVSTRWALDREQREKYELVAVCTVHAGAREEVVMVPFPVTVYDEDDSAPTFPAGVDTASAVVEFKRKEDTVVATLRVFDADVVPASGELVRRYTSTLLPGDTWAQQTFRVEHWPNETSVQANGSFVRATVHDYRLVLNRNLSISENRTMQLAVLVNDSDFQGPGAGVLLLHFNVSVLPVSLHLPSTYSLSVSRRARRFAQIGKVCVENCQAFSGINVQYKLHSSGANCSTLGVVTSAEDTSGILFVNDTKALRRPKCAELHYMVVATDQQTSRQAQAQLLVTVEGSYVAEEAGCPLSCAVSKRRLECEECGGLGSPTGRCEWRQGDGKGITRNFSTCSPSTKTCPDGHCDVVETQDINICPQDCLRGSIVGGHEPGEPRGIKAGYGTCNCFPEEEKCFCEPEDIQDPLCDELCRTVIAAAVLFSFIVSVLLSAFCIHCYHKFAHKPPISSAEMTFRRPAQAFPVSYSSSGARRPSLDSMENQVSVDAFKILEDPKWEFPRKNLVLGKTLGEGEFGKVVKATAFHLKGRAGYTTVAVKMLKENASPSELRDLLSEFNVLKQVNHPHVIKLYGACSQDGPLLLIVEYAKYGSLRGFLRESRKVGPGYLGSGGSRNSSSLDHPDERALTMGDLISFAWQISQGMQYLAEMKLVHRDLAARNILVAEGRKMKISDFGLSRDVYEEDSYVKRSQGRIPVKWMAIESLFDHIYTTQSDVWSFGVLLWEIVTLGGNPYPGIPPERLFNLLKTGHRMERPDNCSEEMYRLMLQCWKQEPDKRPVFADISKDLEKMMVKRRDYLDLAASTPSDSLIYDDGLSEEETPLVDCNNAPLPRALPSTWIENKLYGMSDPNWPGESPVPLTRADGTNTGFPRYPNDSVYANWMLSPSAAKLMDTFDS
How it was run: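 Cells plated overnight, then exposed to compound dilutions in DMSO/medium at 37° C, 5% CO2 for 72 to 144 hours. Viability read by CellTiter-Glo luminescence; IC50 from inhibition rates fitted by nonlinear regression.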

Structure (SMILES) | IC50 [1] [nM] | IC50 [2] [nM] | IC50 [3] [nM]
COc1ncc(CN2C3CC2CN(c2ccc(-c4cc(C#CC(C)(C)O)cn5ncc(C#N)c45)cn2)C3)cc1F [Embodiment 18, 4-(6-(6-((5-Fluoro-6-methoxypyridin-3-yl)methyl)-3,6-diazabicyclo[3.1.1]heptan-3-yl)pyridin-3-yl)-6-(3-hydroxy-3-methylbut-1-yn-1-yl)pyrazolo[1,5-a]pyridine-3-carbonitrile] | 0.97 | 19 | 22.6
C#C[C@@](C)(O)COc1cc(-c2ccc(N3CC4CC(C3)N4Cc3ccc(OC)nc3)nc2)c2c(C#N)cnn2c1 [Embodiment 63, 6-(((R)-2-hydroxy-2-methylbut-3-yn-1-yl)oxy)-4-(6-(6-((6-methoxypyridin-3-yl)methyl)-3,6-diazabicyclo[3.1.1]heptan-3-yl)pyridin-3-yl)pyrazolo[1,5-a]pyridine-3-carbonitrile] | 0.53 | 14.1 | 11.1
C#C[C@](C)(O)COc1cc(-c2ccc(N3CC4CC(C3)N4Cc3ccc(OC)nc3)nc2)c2c(C#N)cnn2c1 [Embodiment 64, 6-(((S)-2-hydroxy-2-methylbut-3-yn-1-yl)oxy)-4-(6-(6-((6-methoxypyridin-3-yl)methyl)-3,6-diazabicyclo[3.1.1]heptan-3-yl)pyridin-3-yl)pyrazolo[1,5-a]pyridine-3-carbonitrile] | 0.36 | 27.8 | 22.6
COc1ccc(CN2C3CC2CN(c2ccc(-c4cc(N5CC(C)(C#N)C5)cn5ncc(C#N)c45)cn2)C3)cn1 [Embodiment 77, 6-(3-Cyano-3-methylazetidin-1-yl)-4-(6-(6-((6-methoxypyridin-3-yl)methyl)-3,6-diazabicyclo[3.1.1]heptan-3-yl)pyridin-3-yl)pyrazolo[1,5-a]pyridine-3-carbonitrile] | 0.42 | 4.1 | 4.79
